Drawing on patent publication US4812567A, “Polycyclic spiroimides with psychotropic activity” (American Home Products Corporation, priority 1986, dated 1989), this text covers Active at for five compounds.

The test has as its system conditioned avoidance (shelf-jump response). Description: conditioned avoidance (shelf-jump response) test in rats. The class given is in vivo, Male CD rats. From the text:
A test designed to determine the potential antipsychotic activity of the compounds of this invention is the conditioned avoidance (shelf-jump response) test. Male CD rats (Charles River) maintained at approximately 400-450 gm body weight are used. […] A moveable wall, controlled by a motor, determines whether the rat has access to the shelf at any time during the experiment. The experimental chamber also contains a house light and sonalert. A steel grid floor in the main chamber is wired for presentation of electric shock. Each trial consists of a […]-second warning tone (conditioned stimulus), continuing for an additional fifteen seconds accompanied by electric shock, (unconditioned stimulus). A response (jumping onto the exposed shelf of the upper chamber) occurring during the initial fifteen-second warning tone is considered an avoidance response, while a response occurring during shock delivery is considered an escape response. Trials are presented on a fixed interval schedule of one minute. The session consists of thirty-six trials. Animals are run twice weekly with control sessions always preceding a drug run, and with at least one day intervening. Compounds are administered i.p. or p.o. at appropriate pre-treatment times to a minimum of five rats at each dose level over a range of doses. […] Response counts are summed over all subjects at a given dose. […] This number is expressed as a percentage of the total trials. […] Potential antipsychotic compounds suppress avoidance responding and increase escape responding.

Counter-ions that a name gives are not always drawn.

As to `O=C1CC2(CCC3CCC2C3)C(=O)N1CCCCN1CCN(c2ncccn2)CC1` (centres unmarked) [Example 1, 1'-[4-[4-(2-Pyrimidinyl)-1-piperazinyl]butyl]spiro[bicyclo[3.2.1]octane-2,3'-pyrrolidine]-2',5'-dione, dihydrochloride, hemihydrate], the Active at (i.p.) stood at 40 mg/kg.

As to `O=C1CC2(CCCC2)CC(=O)N1CCCCN1CCN(c2cncc(Cl)n2)CC1` [Example 4, 8-[4-[4-(6-Chloro-2-pyrazinyl)-1-piperazinyl]butyl]-8-azaspiro[4,5]decane-7,9-dione dihydrochloride, hydrate], the Active at (orally administered) is 40 mg/kg.

Regarding `O=C1CC2(CCCC2)CC(=O)N1CCCCN1CCN(c2nccnc2Cl)CC1` [Example 5, 8-[4-[4-(3-Chloro-2-pyrazinyl)-1-piperazinyl]butyl]-8-azaspiro[4,5]decane-7,9-dione dihydrochloride, hemihydrate], the Active at (i.p.) is recorded as 40 mg/kg.

The compound `O=C1CC2(CCCC2)CC(=O)N1CCCCN1CCN(c2ccc(Cl)nn2)CC1` [Example 6, 8-[4-[4-(6-Chloro-3-pyridazinyl]-1-piperazinyl]-8-azaspiro[4,5]decane-7,9-dione dihydrochloride] came in with an Active at (i.p.) of 40 mg/kg.

In the case of “Octahydro-1'-[4-[4-(2-Pyrimidinyl)-1-piperazinyl]butyl]spiro[4,7-methano-5H-indene-5,3'-pyrrolidine]-2',5'-dione, dihydrochloride [Example 2]”, the Active at (i.p.) is listed as 40 mg/kg.
